Assay [1] relates to HuVec Cells. The assay can be described thus: Transfection of HuVec cells with DOTMA/DOPE/peptide and eGFP plasmid, fluorescent plate reader. It is filed as cell-based. The following applies: DOTMA/DOPE 1:1 plus peptide with RRRRRRRRRRRR (SEQ ID NO: 109) at n terminus; EF1Alpha eGFP plasmid; 0.01 mL complex; 42 hours. The gist of the method:
(§1)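 Cells at 60-70% confluence got DOTMA/DOPE (1:1) mixed with peptides bearing an N-terminal R12 DNA-binding tag, complexed 10 min with EF1α-eGFP plasmid (5 μg/mL in OptiMEM); 0.01 or 0.02 mL complex per well. After 42 h at 37 °C, GFP read by fluorescence plate reader and % transfected cells by microscopy, relative to lipid without peptide.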

In assay [2] the test system is HeLa Cells. Nature of the assay: Transfection of HeLa cells with DOTMA/SEQ ID NO: 72/peptide compared with Lipofectamine 2000. The note with it: fusogenic peptide 0.1 mg/mL. In kind it is cell-based. The gist of the method:
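HeLa cells at 60–70% confluence received 0.01 mL of complexes of EF1Alpha eGFP plasmid (5 μg/mL in OptiMEM) with DOTMA/DOPE (1:1) plus R12-linked peptide, with fusogenic peptide at 0.1 mg/mL final. GFP read by fluorescence plate reader and microscopy (% cells transfected) after 42 h at 37 °C.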

Assay [3] has as its system some examined cell types. Nature of the assay: Transfection expression and % cells transfected over the no peptide control. In kind it is cell-based. The following applies: on some examined cell types. An outline of the steps:
as §1

Assay [4] concerns HeLa Cells. The assay can be described thus: Transfection of HeLa cells with DOTMA/DOPE/peptide and eGFP plasmid, fluorescent plate reader. It is filed as cell-based. The note with it: DOTMA/DOPE 1:1 plus peptide with RRRRRRRRRRRR (SEQ ID NO: 109) at n terminus; EF1Alpha eGFP plasmid; 0.01 mL complex; 42 hours. An outline of the steps:
as §1

The test system of assay [5] is NL-1 iPS Cells. Nature of the assay: Transfection of NL-1 iPS cells with DOTMA/DOPE/peptide and eGFP plasmid, fluorescent plate reader. It is filed as cell-based. The following applies: DOTMA/DOPE 1:1 plus peptide with RRRRRRRRRRRR (SEQ ID NO: 109) at n terminus; EF1Alpha eGFP plasmid; 42 hours.
The subject of assay [6] is Jurkat Cells. Nature of the assay: Transfection of Jurkat cells with DOTMA/DOPE/peptide and eGFP plasmid, fluorescent plate reader. In kind it is cell-based. The following applies: DOTMA/DOPE 1:1 plus peptide with RRRRRRRRRRRR (SEQ ID NO: 109) at n terminus; EF1Alpha eGFP plasmid; 0.02 mL complex; 42 hours. The gist of the method: as §1
In assay [7] the test system is Human Fibroblast Cells. The assay can be described thus: Transfection of human fibroblast cells with DOTMA/DOPE/peptide and eGFP plasmid, fluorescent plate reader. It is filed as cell-based. The note with it: DOTMA/DOPE 1:1 plus peptide with RRRRRRRRRRRR (SEQ ID NO: 109) at n terminus; EF1Alpha eGFP plasmid; 0.01 mL complex; 42 hours. An outline of the steps:
as §1

Assay [8] has as its system C2C12 Cells. The assay can be described thus: Transfection of C2C12 cells with DOTMA/DOPE/peptide and eGFP plasmid, fluorescent plate reader. The note with it: DOTMA/DOPE 1:1 plus peptide with RRRRRRRRRRRR (SEQ ID NO: 109) at n terminus; EF1Alpha eGFP plasmid; 0.02 mL complex; 42 hours. It is filed as cell-based, mouse. An outline of the steps: as §1
Setting [9] is: 0.1 μL of DOTMA/SEQ ID NO: 72/Peptide in well of a 96 well plate.
The mark [10] stands for this setting: 0.2 μL of DOTMA/SEQ ID NO: 72/Peptide in well of a 96 well plate.
The mark [11] stands for this setting: 0.3 μL of DOTMA/SEQ ID NO: 72/Peptide in well of a 96 well plate.
[12] abbreviates: 0.4 μL of DOTMA/SEQ ID NO: 72/Peptide in well of a 96 well plate.

As for “381 (TAGSCL; Peptidic transfection agent) [compound 381]”, in assay [1], the “RF (Relative Fluorescence) of Transfection of HuVec Cells” value was 17542. The “RF (Relative Fluorescence), DOTMA/SEQ ID NO: 72/Peptide, HeLa Cells” value in assay [2] (setting [9]) was 34187; in assay [2] (setting [10]) it was 37463; in assay [2] (setting [11]), 27007; in assay [2] (setting [12]), 20088. Besides, in assay [3], the “transfection expression and the % cells transfected over the no peptide control” value is “increased”. Besides, the “RF (Relative Fluorescence) of Transfection of HeLa Cells” value in assay [4] is 22652. Moreover, the “RF (Relative Fluorescence) of Transfection of NL-1 iPS Cells” value in assay [5] is 9644. For the same substance, the “RF (Relative Fluorescence) of Transfection of Jurkat Cells” value in assay [6] is given as 10806. Also, the “RF (Relative Fluorescence) of Transfection of Human Fibroblast Cells” value in assay [7] was determined as 9953. For the same substance, the “RF (Relative Fluorescence) of Transfection of C2C12 Cells” value in assay [8] came out at 8834.

For the substance “450 (TAGSCLRKFSCL; Peptidic transfection agent) [compound 450]”, in assay [1], the “RF (Relative Fluorescence) of Transfection of HuVec Cells” value is on record as 20911. In addition, the “RF (Relative Fluorescence), DOTMA/SEQ ID NO: 72/Peptide, HeLa Cells” value stood at 11962 in assay [2] (setting [9]), 17346 in assay [2] (setting [10]), 12553 in assay [2] (setting [11]) and 10241 in assay [2] (setting [12]). Besides, the “transfection expression and the % cells transfected over the no peptide control” value in assay [3] is given as “increased”. The “RF (Relative Fluorescence) of Transfection of HeLa Cells” value in assay [4] is 21045. In assay [5], the “RF (Relative Fluorescence) of Transfection of NL-1 iPS Cells” value was 29856. Moreover, in assay [6], the “RF (Relative Fluorescence) of Transfection of Jurkat Cells” value was determined as 8779. Further, in assay [7], the “RF (Relative Fluorescence) of Transfection of Human Fibroblast Cells” value was found to be 6996. Besides, in assay [8], the “RF (Relative Fluorescence) of Transfection of C2C12 Cells” value was 3795.

With “452 (CNYYSNSYSFWLASLNPER; Peptidic transfection agent) [compound 452]”, the “RF (Relative Fluorescence) of Transfection of HuVec Cells” value in assay [1] is on record as 1841. The “RF (Relative Fluorescence), DOTMA/SEQ ID NO: 72/Peptide, HeLa Cells” value in assay [2] (setting [9]) was found to be 6276; in assay [2] (setting [10]), 12671; in assay [2] (setting [11]) it was 12047; in assay [2] (setting [12]), 10918. Also, the “transfection expression and the % cells transfected over the no peptide control” value in assay [3] is on record as “increased”. Also, in assay [4], the “RF (Relative Fluorescence) of Transfection of HeLa Cells” value was determined as 13888. In addition, the “RF (Relative Fluorescence) of Transfection of NL-1 iPS Cells” value in assay [5] was 10349. In assay [6], the “RF (Relative Fluorescence) of Transfection of Jurkat Cells” value was determined as 2554. In assay [7], the “RF (Relative Fluorescence) of Transfection of Human Fibroblast Cells” value came out at 2779. Besides, the “RF (Relative Fluorescence) of Transfection of C2C12 Cells” value in assay [8] amounted to 21798.

As to “454 (TGLSCLQRFTTM; Peptidic transfection agent) [compound 454]”, in assay [1], the “RF (Relative Fluorescence) of Transfection of HuVec Cells” value stood at 13336. Besides, the “RF (Relative Fluorescence), DOTMA/SEQ ID NO: 72/Peptide, HeLa Cells” value is 34033 in assay [2] (setting [9]), 37099 in assay [2] (setting [10]), 27412 in assay [2] (setting [11]) and 16023 in assay [2] (setting [12]). Besides, the “transfection expression and the % cells transfected over the no peptide control” value in assay [3] is on record as “increased”. In addition, in assay [4], the “RF (Relative Fluorescence) of Transfection of HeLa Cells” value was found to be 34550. The “RF (Relative Fluorescence) of Transfection of NL-1 iPS Cells” value in assay [5] came out at 18100. For the same substance, the “RF (Relative Fluorescence) of Transfection of Jurkat Cells” value in assay [6] worked out at 8224. Besides, the “RF (Relative Fluorescence) of Transfection of Human Fibroblast Cells” value in assay [7] is 7568. The “RF (Relative Fluorescence) of Transfection of C2C12 Cells” value in assay [8] stood at 9280.

As for “503 (TAGSCLRKFSTMRRRRRRRRRRRR; Peptidic transfection agent) [compound 503]”, the “RF (Relative Fluorescence) of Transfection of HuVec Cells” value in assay [1] was determined as 12123. Also, the “RF (Relative Fluorescence), DOTMA/SEQ ID NO: 72/Peptide, HeLa Cells” value in assay [2] (setting [9]) came out at 12827; in assay [2] (setting [10]), 20006; in assay [2] (setting [11]), 17101; in assay [2] (setting [12]) it was 16206. For the same substance, the “transfection expression and the % cells transfected over the no peptide control” value in assay [3] is recorded as “increased”. Also, the “RF (Relative Fluorescence) of Transfection of HeLa Cells” value in assay [4] worked out at 25368. Moreover, in assay [5], the “RF (Relative Fluorescence) of Transfection of NL-1 iPS Cells” value was 19014. In addition, the “RF (Relative Fluorescence) of Transfection of Jurkat Cells” value in assay [6] is listed as 9411. In assay [7], the “RF (Relative Fluorescence) of Transfection of Human Fibroblast Cells” value is given as 13085. Also, the “RF (Relative Fluorescence) of Transfection of C2C12 Cells” value in assay [8] is given as 3973.
